These results are taken from BindingDB's records for PubMed 3702863 (R. J. Reynolds Tobacco, 1986).

The target of the test is Nicotinic acetylcholine receptor (Rattus leucopus, UniProt Q62594).
Nicotinic acetylcholine receptor, sequence (Q62594 whole entry): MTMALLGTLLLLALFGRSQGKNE
What is called Ki is the equilibrium dissociation constant of an inhibitor or competing ligand from its target. Read a high Ki as a looser hold on the target. Turning to `COc1cc(CC(C)N)cc(OC)c1OC` (configuration not stated), the Ki was 0.375 µM.
In the case of `C=C(C=O)C[C@H]1C[C@H](O)[C@]2(C)O[C@@H]3C[C@@H]4O[C@@H]5C[C@]6(C)O[C@]7(C)CC[C@@H]8O[C@@H]9C[C@]%10(C)O[C@@H]%11C(C)=CC(=O)O[C@H]%11C[C@H]%10O[C@H]9C[C@@H](C)[C@H]8O[C@H]7C[C@H]6O[C@@]5(C)C/C=C\[C@H]4O[C@H]3C[C@H]2O1`, the Ki was > 10 µM.
`CN1C(=O)CCC1c1cccnc1` (configuration not stated) [CAS_21906] gave a Ki of 5 µM.
Regarding `C[N+](C)(C)CCCCCCCCCC[N+](C)(C)C` [Decamethonium Iodide], the Ki was 3.13 µM.
Regarding `C[N+](C)(C)CCCCCC[N+](C)(C)C` [Hexamethoniumdibromide], the inhibition constant (Ki) was > 10 µM.
As for `CN1[C@@H](C[C@@H](O)c2ccccc2)CCC[C@H]1CC(=O)c1ccccc1` [Lobeline], the figure is 0.009 µM; as for `COc1cc2c3cc1Oc1cc(ccc1O)C[C@@H]1c4c(cc(OC)c(O)c4Oc4ccc(cc4)C[C@@H]3N(C)CC2)CC[N+]1(C)C` [Tubocurarine,d], > 10 µM.
